Source: patent US20120232107A1, “NON-PEPTIDE ANTAGONISTS OF GASTRIN RELEASING PEPTIDE” (The Government of the United States of America as …, priority 2003, published 2012)
“Also recorded” adds a separate entry of the source. Where two headings read alike, the source gives them in different places. Blank lines part the entries; values can stand above or below the compound they belong to. Ends that are not written are not given here.

Legend:
[1] = molecular target: T1, AM (Homo sapiens, UniProt P35318); experiment: cAMP analysis for AM in Rat2 cells; type: cell-based, rat; conditions: for Action on second messengers: peptide AM, cAMP induced by 100 nM AM in Rat2 cells; for variation of intracellular cAMP levels: Rat2 cells; for Response to second messengers: peptide target AM
T1 construct: AM is a 52 amino acid peptide; purchased Peninsula (S. Carlos, Calif.); host or cells: synthetic peptide
T1 sequence (P35318 95-146): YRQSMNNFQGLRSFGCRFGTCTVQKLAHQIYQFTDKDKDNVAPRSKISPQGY
Description: This cell line was obtained from the American Tissue Culture Collection (ATCC, Manassas, Va.) and maintained in RPMI-1640 supplemented with 10% fetal bovine serum (FBS, Invitrogen, Carlsbad, Calif.). Cells were seeded in 24-well plates at 2×10^4 cells/well and incubated at 37° C. in 5% CO2 until they reached 80% confluency. Before the assay, cells were incubated for 15 min in TIS medium (RPMI-1640 plus 10 μg/ml transferrin, 10 μg/ml insulin, and 50 nM sodium selenite) containing 1% BSA, 1 mg/ml bacitracin, and 100 μM isobutylmethylxanthine. Peptides and small molecules were applied in the same medium for 5 min at the indicated concentrations in a volume of 250 μl. The reaction was terminated by adding an equal volume of ice-cold ethanol. cAMP contents were measured using the Biotrac cAMP radioimmunoassay (Amersham Biosciences, Piscataway, N.J.), as described (Pio et al. (2001) J. Biol. Chem. 276, 12292-12300).

[2] = test system: hypertensive SHR rats; experiment: Measurement of blood pressure in vivo, hypertensive SHR rats; parameters: species or system rat; conditions: for decrease in blood pressure from basal levels: 20 nmols/Kg intravenous; for decrease in blood pressure from basal levels / Biological activity (blood pressure): hypertensive rats; for Biological activity (blood pressure): AM superagonists, 20 nmols/Kg iv
Description: (§1) AM is a potent and long-lasting vasodilator Therefore it was expected that AM antagonists would elevate blood pressure and AM superagonists would decrease it further. In consequence, suspected antagonists were analyzed in normotensive rats (10-week-old Lewis/ssncr males, SAIC, Frederick, Md.) and suspected superagonists in hypertensive animals (10-week-old SHR males, Taconic Farms, Germantown, N.Y.).
(§2) Animals were anaesthetized with 3% halothane, intubated, and maintained with 1% halothane in 70% nitrous oxide and 30% oxygen (VMS Anesthesia Machine, Matrx, Medical Inc., Orchard Park, N.Y.) at 82 strokes/min. Rectal temperature was monitored through the experiment. A PE50 catheter was placed on the right femoral artery and arterial blood pressure was recorded through a P23XL transducer (Grass Instruments, Quincy, Mass.). Peptides and small molecules were injected into the right femoral vein through another catheter. All procedures were performed under a protocol approved by the National Institutes of Health.

[3] = molecular target: T1, AM; experiment: Primary screening: interference with binding of AM to its blocking monoclonal antibody; conditions: 1 μM compound
Description: Human synthetic AM was solid-phased into PVC 96-well plates (Fisher Scientific, Pittsburgh, Pa.) by incubating 50 μl of AM (at 1 nmols/μl) per well for 1 h. To solid-phase […] into the plates, these were previously treated with glutaraldehyde as described (Kasprzyk et al. (1988) Anal. Biochem. 174, 224-234). After discarding the coating solution, the plates were blocked with 200 μl per well of 1% bovine serum albumin (BSA) in phosphate buffer saline (PBS). After 1 h, this solution was aspirated off and 50 μl containing 1 μM of one of the compounds of the library in PBS was added per well. Immediately after, 50 μl of labeled antibody (at 2.4 μg/ml) were added on each well and the solution was allowed to react for 1 h. Following 3 thorough washes with 1% BSA in PBS to remove the unbound antibodies, peroxidase activity was developed using o-phenylenediamine dihydrochloride (Sigma) as a substrate. The reaction product was quantified with a plate reader (Spectra Rainbow, Tecan, Austria) at 450 nm. Each plate contained several internal controls including wells without any coating that are used to calculate non-specific binding; wells where no potential antagonists were added, which provided maximum binding; and wells where the unlabeled antibody (at 1.2 μg/ml) substituted the small molecule, as a positive inhibition control (FIG. 1B). […]

[4] = molecular target: T2, GRP (Homo sapiens, UniProt P07492); experiment: IP3 analysis for GRP in H-1299 cells; type: cell-based; conditions: for Action on second messengers: peptide GRP, IP3 or Ca2+ levels induced by GRP in H1299 cells
T2 construct: GRP is a 27 amino acid peptide; purchased Peninsula (S. Carlos, Calif.); host or cells: synthetic peptide
T2 sequence (P07492 24-50 limits assumed): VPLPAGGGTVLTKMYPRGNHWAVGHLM
Description: This cell line was obtained from ATCC and cultured as the other cell lines. The signal transduction pathway for GRP includes elevation of intracellular levels of IP3 and Ca^2+ and these were investigated as previously shown (Ryan et al. (1998) J. Biol. Chem., 273, 13613-13624). Briefly, to quantify IP3, contents cells were subcultured into 24-well plates (5×10^4 cells/well). After a 24 h incubation period at 37° C., the cells were incubated with 3 μCi/ml myo-[^3H]inositol in growth medium supplemented with 2% FBS for an additional 24 h. Incubation volumes were 500 μl of assay buffer/well containing 135 mM sodium chloride, 20 mM HEPES (pH 7.4), 2 mM calcium chloride, 1.2 mM magnesium sulfate, 1 mM EGTA, 20 mM lithium chloride, 11.1 mM glucose, and 0.05% BSA (v/v) with or without any of the molecules studied at 37° C. for 30 min. Experiments were terminated with 1 ml of ice-cold hydrochloric acid/methanol (0.1%, v/v). [^3H]IP3 was eluted off Dowex AG-1-X8 anion exchange columns with 2 ml of 1 mM ammonium formate and 100 mM formic acid. Each of the eluates was collected and mixed with 10 ml of scintillation mixture (BioSafe, Research Products International Corp, Mount Prospect, Ill.), and the radioactivity was measured in a LS 3801 β counter (Beckman, Somerset, N.J.).

[5] = test system: normotensive Lewis/ssncr rats; experiment: Measurement of blood pressure in vivo, normotensive Lewis/ssncr rats; parameters: species or system rat; conditions: for Biological activity (blood pressure): AM antagonists, 20 nmols/Kg iv; for Biological activity: negative modulators of AM
Description: as §1, §2

[6] = molecular target: T1, AM; experiment: Surface plasmon resonance binding to immobilized AM; conditions: for Binding to AM kd: kinetic dissociation constant; for kon: read-out: Binding to AM ka; for Binding to AM KA: thermodynamic association constant
Description: Characterization of the binding between AM and the small molecules was performed immobilizing 3 μg of AM on a CM5 sensor chip by N-hydroxysuccinimide activation, followed by covalent amino coupling of the peptide to the surface, using BIAcore 3000 (Piscataway, N.J.). The remaining free surface was blocked with 1 mM ethanolamine and the matrix washed with 0.5 M NaCl solution and then re-equilibrated with binding buffer (1:200 DMSO in PBS). Eight different dilutions of each small molecule were prepared in binding buffer with concentrations ranging from 0 to 10 μM and injected from low to high concentration. Each injection was followed by a matrix regeneration step. Mass transfer control experiments were performed by injecting the same concentration of each small molecule at different flow rates (5, 15, and 75 μl/min). The data were then fitted to several models for a kinetic analysis and the binding constants calculated. The best fittings were obtained with a simple 1:1 Langmuir model.

[7] = molecular target: T2, GRP; experiment: Ca2+ analysis for GRP in H-1299 cells; type: cell-based
Description: After washing two times with TIS, 2 ml of cell suspension were placed in a Delta PTI Scan 1 spectrofluorimeter (Photon Technology International, South Brunswick, N.J.) equipped with a stir bar and water bath (37° C.). Fluorescence was measured at dual excitation wavelengths of 340 nm and 380 nm using an emission wavelength of 510 nm.

[8] = test system: Bovine retinal microvascular endothelial cells; experiment: Cord formation assay in Matrigel; type: cell-based; conditions: 5 nM GRP alone
Description: Formation of tube-like structures was performed as described in Kubota et al. (1988) J. Cell Biol. 107, 1589-1598; Nam et al. (2003) Phytother. Res. 17, 107-111; and Macpherson et al. (2003) Mol Cancer Ther 2, 845-54. Briefly, a thin layer of Matrigel (Collaborative Biomedical Products, Bedford, Mass.) was allowed to polymerize at the bottom of 24-well plates. […] After an overnight incubation at 37° C., the tubular structures were photographed (3 pictures per well at 10×) and the number of knots per photographic field were counted as a measure of lattice complexity.

[9] = test system: GRP-induced angiogenesis; experiment: Directed in vivo angiogenesis assay (DIVAA); parameters: species or system mice; conditions: 1 nM GRP
Description: Analysis and quantitation of angiogenesis was done using DIVAA as previously described (Martinez et al. (2002) J Natl Cancer Inst 94, 1226-37). Briefly, 10 mm long surgical-grade silicone tubes with only one end open (angioreactors) were filled with 20 μl of matrigel alone or mixed with GRP and the small molecules at the indicated concentrations. After the matrigel solidified, the angioreactors were implanted into the dorsal flanks of athymic nude mice (NCI colony). After 11 days, the mice were injected iv with 25 mg/ml FITC-dextran (100 μl/mouse, Sigma) 20 min before removing angioreactors. Quantitation of neovascularization in the angioreactors was determined as the amount of fluorescence trapped in the implants and was measured in a HP Spectrophotometer (Perkin Elmer).

[10] = unit inferred, read-out: calculated KD

Compound: Nc1nc(=O)c2[nH]cnc2n1O [compound 145425]
Action on second messengers [1]: Superagonists | decrease in blood pressure from basal levels [2]: 55±24 mm Hg | Biological activity (blood pressure) [2]: Reduces blood

Compound: c1ccc(Nn2c(CCCCCCCCc3nnc(COc4ccccc4)n3Nc3ccccc3)nnc2COc2ccccc2)cc1 [compound 697165]
competition with labeled blocking monoclonal antibody for AM-coated plate [3]: successful competitors | dose dependence of cAMP elevation ([1]; in the presence of 100 nM AM): dose-dependent elevation of cAMP | variation of intracellular cAMP levels ([1]; in the presence of 100 nM AM): superagonist | Action on second messengers [1]: Superagonists

Compound: O=NN(Cc1ccc(Cl)cc1)C(C(=O)O)c1ccccc1 (stereo not drawn) [compound 372874]
Action on second messengers [4]: Superagonist

Compound: OC(COc1ccccc1)CN1CCCCC1 (stereo not drawn) [compound 89435]
variation of intracellular cAMP levels ([1]; in the presence of 100 nM AM): most active antagonists | Action on second messengers [1]: Antagonists | Response to second messengers [1]: Neg. modul. | Biological activity (blood pressure) ([5]; normotensive rats): Elevates blood | Biological activity [5]: Vasodilator | Binding to AM kd [6]: 0.000871 s⁻¹ | kon [6]: 1020 M⁻¹ s⁻¹ | Binding to AM KA [6]: 1.18e+06 M⁻¹ | Kd ([6]; thermodynamic dissociation constant, read-out: Binding to AM KD): 851 nM

Compound: CCN1CCC(O)(C(C(=O)O)c2ccccc2)CC1 (stereo not drawn) [compound 16311]
variation of intracellular cAMP levels ([1]; in the presence of 100 nM AM): most active antagonists | Action on second messengers [1]: Antagonists | Response to second messengers [1]: Neg. modul. | elevation in blood pressure, difference from basal levels ([5]; 20 nmols/Kg intravenous, normotensive rats): 127±47 mm Hg | Biological activity (blood pressure) ([5]; normotensive rats): Elevates blood | Biological activity [5]: Vasodilator | Binding to AM kd [6]: 1.02e-05 s⁻¹ | kon [6]: 1550 M⁻¹ s⁻¹ | Binding to AM KA [6]: 1.52e+08 M⁻¹ | Kd [6, 10]: 6.56 nM

Compound: CCN(CC)CCC(O)(Cc1ccccc1)C(C(=O)O)c1ccccc1 (stereo not drawn) [compound 50161]
variation of intracellular cAMP levels ([1]; in the presence of 100 nM AM): most active antagonists | Action on second messengers [1]: Antagonists

Compound: OCCCN=C1CCCCC1 [compound 128911]
Action on second messengers [1]: Superagonists | Response to second messengers [1]: Posit. modul. | decrease in blood pressure from basal levels [2]: 62±21 mm Hg | Biological activity (blood pressure) [2]: Reduces blood | Biological activity ([2]; positive modulator of AM): Vasopressor | Binding to AM kd [6]: 0.000892 s⁻¹ | kon [6]: 304 M⁻¹ s⁻¹ | Binding to AM KA [6]: 341000 M⁻¹ | Kd [6, 10]: 2930 nM

intracellular Ca2+ ([7]; 1 nM GRP alone, H1299 cells): marked elevation
Compound: GRP: Synthetic human gastrin releasing peptide, 27 amino acid peptide hormone (VPLPAGGGTVLTKMYPRGNHWAVGHLM; ends and bridges not checked; UniProt P07492 24-50, looked up) [reference compound]
number of knots per photographic field [8]: 37±5 | angiogenic potential in vivo [9]: exhibits angiogenic potential in vivo

Compound: Nn1c(CCCCCCCCc2nnc(COc3ccc4ccccc4c3O)n2N)nnc1COc1ccc2ccccc2c1O [compound 697162]
Action on second messengers [1]: Superagonists

Action on second messengers [4]: Antagonists | Response to second messengers ([4]; peptide target GRP): Neg. modul. | Ca2+ response elicited by 1 nM GRP ([7]; H1299 cells pre-exposed to compound (1 min)): dramatically reduces | Binding to AM ([6]; immobilized AM): not to bind; also recorded: No binding
Compound: Oc1c[n+](CC[n+]2cc(O)on2)no1 [compound 54671]

Compound: CS(=O)(=O)OC1CN2CCC1CC2 (stereo not drawn) [compound 79422]
variation of intracellular cAMP levels ([1]; in the presence of 100 nM AM): antagonist | Action on second messengers [1]: Antagonists
